Results on 1 compound are retold here after patent US11034672B1, “Tyrosine kinase inhibitor compositions, methods of making and methods of use” (Black Diamond Therapeutics, Inc., priority 2018, dated 2021).

Experiment [1] deals with covalently-activated EGFR variants. Put plainly: Covalent dimer formation, Western blot under non-reducing conditions. In kind it is cell-based. The settings on record: FIG. 18 legend.
Experiment [2] relates to cells having the EGFR-Vii mutation. Put plainly: Proliferation of cells having the EGFR-Vii mutation (FIG. 18). In kind it is cell-based. As for the experimental part:
EC50 values were determined with the same application.

On to `CN(C)C/C=C/C(=O)Nc1cc2c(Nc3ccc(F)c(Cl)c3)ncnc2cc1C#CC1[C@H]2COC[C@@H]12` (some centres unmarked) [NT-113], for which, in experiment [1], the “dimerization for covalently activated ErbB receptors” value is “induces dimerization”. Further, in experiment [2], the “cellular proliferation in response to the inhibitor” value is on record as “no evidence for increased cellular proliferation”.
